≈ marks a conversion by molar mass, not a printed value.

Broadly, the solubility is the dissolved amount per volume that the medium holds. The low end stands for a poorly soluble substance, the high end for a readily soluble substance.

A short description of one data set: Solubility. In kind it is physicochemical. The source says: Supplement 41598_2023_30246_MOESM1_ESM.docx, table 2: Supplementary Table S2. In vitro ADME parameters of JBI-589 | column: 90
For data set [1], the system named is G-CSF-modified collagen-induced arthritis. Put plainly: G-CSF-modified collagen-induced arthritis model. In kind it is in vivo, C57BL/6 mice. The method, then:
C57BL/6 mice aged 8– 12 weeks were immunized with the emulsion of complete Freund's adjuvant (CFA, catalog number: 7023, Chondrex, Redmond, WA) and 100 μg of chicken type II collagen (catalog number: 20012, Chondrex) in a 1:1 mixture (total 100 μl) subcutaneously into the base of the tail on day 0[18]. The booster immunization of CII with incomplete Freund's adjuvant (catalog number: 7002, Chondrex) was performed on day 21. Recombinant human G-CSF (Filgrastim, Neupogen, Amgen, Inc., Thousand Oaks, CA) was injected at 10 μg peritoneally once daily from day 20 to day 23. Vehicle (water) or 50 mg/kg of JBI-589 was orally administered twice daily from day 20 to day 56. The severity of arthritis was evaluated using the following clinical scoring system for each limb: 0, normal; 1, swelling in one finger joint; 2, swelling in more than one finger joint or wrist or ankle joint; 3, swelling in the entire paw; and 4, deformity and or ankylosis. The maximum score was 16 per mouse. […] At the end of the study, all mice were euthanized after giving anesthesia using 2% isoflurane (Patterson Veterinary, catalog number: 07–893-2374). […]
H&E stain of joint tissue was performed following the previously described method.
Inflammation was scored on a scale of 0 (no inflammation) to 3 (severe inflamed joint) depending on the number of inflammatory cells in the synovial cavity (exudate) and synovial tissue (infiltrate)[39]. […]
Expressions of target proteins in synovial tissue on the joint surface of wrists and ankles were determined by immunoblotting. Synovial tissue was homogenized in radioimmunoprecipitation assay (RIPA) buffer (catalog number: 89901, Thermo Fisher Scientific) with protease inhibitor cocktails (catalog number: R0278, Sigma, St. Louis, MO) on ice. Following centrifugation at 20,000 g for 20 min at 4 °C, the protein content of the supernatant was determined by the Bradford protein assay (catalog number: 5000006, Bio-Rad Laboratories), and an equal amount of protein per sample was used. Protein lysate was resolved on gradient gels (Bolt 4–12% Bis–Tris Plus gels, catalog number: NW04122BOX, Life Technologies) and electroblotted on polyvinylidene difluoride (PVDF) membranes (catalog number: IB401001, Invitrogen) using the iBlot system (Thermo Fisher Scientific). After blocking with 5% BSA TBS-T buffer (0.05% Tween-20 in 1 × TBS) for 1 h at room temperature, the membranes were incubated with primary antibodies against myeloperoxidase (MPO, 1:500, catalog number: A0398, DAKO, Santa Clara, CA) or citrullinated histone H4 (H4Cit, 1: 1,000, catalog number: 07-596, Millipore, Burlington, MA) at 4 °C overnight, and subsequently with goat anti-rabbit IgG (H + L)- HRP (1:10,000, catalog number: 1706515, Bio-Rad) for 2 h at room temperature. Blots were developed with enhanced chemiluminescence substrate (catalog number: 32106, Thermo Fisher Scientific). Equal loading was confirmed by GAPDH (catalog number: G9545-200UL, 1: 10,000, Sigma). The intensity of the bands on blots was quantified using ImageJ software.

Data set [2] is described as follows: Microsomal stability, HLM. In kind it is in vitro ADME, human. Conditions: 1 µM, liver microsomes 0.5 mg/mL; one range given for HLM/MLM/DLM/RLM. As for the experimental part:
(§1) Microsomal stability: Liver microsomes (0.5 mg/mL) from different species were incubated with JBI-589 (1 µM) with or without NADPH (1 mM) at 37 °C for 30 min in potassium phosphate buffer (pH 7.4) and then reaction was stopped with quenching solution (0.5% Formic acid in internal standard (IS) containing ACN). Resulting samples were centrifuged and supernatant was taken for LC–MS/MS analysis. Percent metabolism was calculated as follows: % Metabolized: [1 − (test area ratio/control area ratio)] *100.
A general note: Liver microsomes are vesicles of endoplasmic reticulum, rich in cytochrome P450 enzymes.

A short description of data set [3]: Plasma protein binding (equilibrium dialysis). In kind it is in vitro ADME. As to conditions: pH 7.4, plasma across species, read-out: PPB (% unbound). As for the experimental part: Plasma protein binding: 10 µM of JBI-589 was mixed with plasma from different species (in sodium phosphate buffer, pH 7.4) was added to the plasma side of the 96-well micro-equilibrium dialysis device and sodium phosphate buffer (pH 7.4) was added to the other half of the device. The device was incubated at 37 ± 1 °C for 14 h with constant shaking. After the incubation time, plasma and buffer were collected from either side, quenched (0.5% formic acid in internal standard (IS) containing ACN), centrifuged and supernatant was used for LC–MS/MS analysis. Percent of unbound compound was calculated as follows: Percent unbound: [peak area ratio in buffer side/dilution factor]/peak area ratio in plasma side × 100; Peak area ratio: compound peak area/internal standard peak area.
(In equilibrium dialysis free small molecules cross a membrane that holds back macromolecules.)

Data set [4] is described as follows: Microsomal stability, MLM. In kind it is in vitro ADME, mouse. As to conditions: 1 µM, liver microsomes 0.5 mg/mL; one range given for HLM/MLM/DLM/RLM. The method, then: as §1
Where [5] appears, read: 50 mg/kg orally twice daily day 20 to day 56.

On to `Cc1c(-c2cc3ccccc3n2Cc2ccc(F)cc2)nc2cc(C(=O)N3CCC[C@@H](N)C3)ccn12` [JBI-589, (R)-(3-aminopiperidin-1-yl)(2-(1-(4-fluorobenzyl)-1H-indol-2-yl)-3-methylimidazo[1,2-a]pyridin-7-yl)methanone], for which the solubility in “Solubility” was 90 µM (≈ 43.3 µg/mL). In data set [1] (setting [5]), the “effect on arthritis incidence” value was “significant effect” and the “effect on arthritis severity” value was “significant effect”. The “lesions positive for H3Cit and Ly6G and DNA within the joint space and on the bone surface (immunofluorescence)” value in data set [1] (ankle joints day 56, present in vehicle-treated mice) is on record as “not in JBI-589-treated mice”. In addition, the “eroded surface of bones (micro-CT)” value in data set [1] (ankle joints, vs control mice) is listed as “fewer areas of eroded surface”. Also, the “plasma levels of H3Cit” value in data set [1] (day 22, vs vehicle) is recorded as “lower”. For the same compound, in data set [1] (day 56, vs vehicle), the “serum IL-6” value is given as “reduced”, the “serum anti-Collagen Type II (CII) IgG2c antibody level” value is recorded as “comparative” and the “serum anti-Collagen Type II (CII) IgG antibody level” value is recorded as “comparative”. In data set [1] (vs vehicle), the “H4Cit in synovial tissue (western blot)” value is “less”; the “Myeloperoxidase (MPO) in synovial tissue (western blot)” value is on record as “less”; the “inflammation (exudate and infiltrate), H&E staining of ankle joint” value is recorded as “alleviated severity of arthritis”; the “serum anti-H3Cit antibody” value is recorded as “less”. The “HLM % metabolized @ 30 min” value in data set [2] is on record as 25-50%. For the same compound, the fraction unbound at 14 h, 10 µM in data set [3] was in the range of 0.05 to 0.1. The “MLM % metabolized @ 30 min” value in data set [4] is 25-50%.

For the origin of these results see article PMC9950073, “Alleviation of arthritis through prevention of neutrophil extracellular traps by an orally available inhibitor of protein arginine deiminase 4” (Scientific Reports, 2023).
